Assays:
[1] = Serum biochemical analysis of infected and treated IFNγ −/− mice; format: in vivo, C57BL/6 IFNγ −/− mice
Protocol: Inhibition of C. parvum infection in IFN-gamma knock-out (IFNγ −/−) mice: Twelve female C57BL/6 IFNγ −/− mice (4 weeks old) from the Jackson Laboratory were housed in a controlled environment with a 12 h light/dark cycle and access to food and water ad libitum. Cp-NLuc oocysts were isolated from infected mouse feces and purified using a sodium chloride density gradient. Mice were inoculated via oral gavage with a suspension of 10^4 oocysts in 50 µL sterile PBS. On days 5 and 6 post-infection, mice were treated with 4 mg/kg of oidiolactone A or DMSO vehicle control every 12 h for a total of four doses (6 mice per treatment group). Fecal samples were collected daily and stored at −20 °C until analysis. Feces were homogenized in a lysis buffer solution, centrifuged, and the supernatant was incubated with Nano-Glo® substrate in a 96-well plate, as previously described. Luminescence was measured in a microplate reader immediately after substrate addition. Oocyst shedding, measured in RLUs/gram of feces, was plotted over time, and the area under the curve was determined for each mouse. Mice were sacrificed 14 days post-infection, and serum was collected for biochemical analysis. Biochemical analyses were performed using the Beckman Coulter AU480 automated analyzer (Beckman Coulter, Brea, CA, USA) at the Clinical Pathology Laboratory, Veterinary Medical Center, University of Minnesota.

[2] = Microsomal stability assay, mouse; conditions: microsomes, pH 7.4
Protocol: Microsomal stability assay. The in vitro microsomal stability assay was conducted in duplicate in commercially available mouse or human liver microsomes (Sekisui XenoTech, Kansas City, KS, USA), which were supplemented with nicotinamide adenine dinucleotide phosphate (NADPH) as a cofactor. […] The reaction was initiated by the addition of 1 mmol/L NADPH, followed by incubation at 37 °C. A negative control was performed in parallel without NADPH to reveal any chemical instability or non-NADPH dependent enzymatic degradation for each compound. […] At various time points (0, 5, 15, 30, and 60 min), a 40 µL of reaction aliquot was taken and quenched with 120 µL of acetonitrile containing 0.1% formic acid. The samples were then vortexed and centrifuged at 15,000 rpm for 5 min at 4 °C. The supernatants were collected and analyzed by LC-MS/MS to determine the in vitro metabolic half-life (t1/2).

[3] = PAMPA membrane permeability assay; format: in vitro ADME
Protocol: PAMPA membrane permeability assay. The membrane permeability of selected compounds was evaluated using the Corning® BioCoat^TM Pre-coated PAMPA Plate System (catalog. No. 353015, Corning, Glendale, AZ, USA). The pre-coated plate assembly, which was stored at −20 °C, was thawed for 30 min at room temperature. The permeability assay was carried out in accordance with the manufacturer’s protocol. Briefly, the 96-well filter plate, pre-coated with lipids, was used as the permeation acceptor and a matching 96-well receiver plate was used as the permeation donor. […] At the end of the incubation, the plate was separated, and the final concentrations of compounds in both donor wells and acceptor wells were analyzed using LC-MS/MS. Permeability of the compounds was calculated using Equation (1): Pe = {−ln [1 − CA(t)/Ceq]}/[A × (1/VD + 1/VA) × t](1) where A = filter area (0.3 cm^2), VD = donor well volume (0.3 mL), VA = acceptor well volume (0.2 mL), t = incubation time (seconds), CA(t) = compound concentration in acceptor well at time t, and CD(t) = compound concentration in donor well at time t. Ceq was calculated using Equation (2): Ceq = [CD(t) × VD + CA(t) × VA]/(VD + VA)(2) […]

For CO[C@H]1OC(=O)C=C2[C@@]13O[C@@H]3[C@H]1OC(=O)[C@@]3(C)CCC[C@@]2(C)[C@@H]13 [compound 1, oidiolactone A], the “signs of acute toxicity (liver, renal, metabolic, cardiac functions, protein status, electrolytes vs control)” value ([1]; 4 mg/kg x 4 doses, serum day 14) was “no statistically significant differences”, the “LIH (sum of lipemia, icterus, and hemolysis scores per mouse)” value ([1]; serum, mean ± SD) was 1.5 ± 0.71 and the ALP ([1]; serum, mean ± SD of two mice) was 182.00 ± 15.56 U/L. It also gave an ALT ([1]; serum, mean ± SD of two mice) of 37.50 ± 6.36 U/L, an AST ([1]; serum, mean ± SD of two mice) of 229.50 ± 31.82 U/L and an Alb ([1]; serum, mean ± SD of two mice) of 3.30 ± 0.14 g/dL. The Amy ([1]; serum, mean ± SD of two mice) was 456.00 ± 80.61 U/L, the “An Gap (calc.)” value ([1]; serum, mean ± SD of two mice) was 27.00 ± 1.41 and the BUN ([1]; serum, mean ± SD of two mice) was 21.50 ± 4.95 mg/dL. The CK ([1]; serum, mean ± SD of two mice) was 1618.00 ± 376.18 U/L, the Ca ([1]; serum, mean ± SD of two mice) was 10.55 ± 0.07 mg/dL and the Chol ([1]; serum, mean ± SD of two mice) was 92.50 ± 7.78 mg/dL. For the same compound, the Creat ([1]; serum, mean ± SD of two mice) was 0.00 ± 0.00 mg/dL, the GGT ([1]; serum, mean ± SD of two mice) was 0.00 ± 0.00 U/L and the “Glob (calc.)” value ([1]; serum, mean ± SD of two mice) was 1.55 ± 0.07 g/dL. The Gluc ([1]; serum, mean ± SD of two mice) was 280.00 ± 15.56 mg/dL, the HCO3 ([1]; serum, mean ± SD of two mice) was 14.85 ± 1.48 mmol/L and the K ([1]; serum, mean ± SD of two mice) was 5.15 ± 0.07 mmol/L. For the same compound, the Mg ([1]; serum, mean ± SD of two mice) was 2.75 ± 0.07 mg/dL, the Na ([1]; serum, mean ± SD of two mice) was 149.50 ± 0.71 mmol/L and the “Osmol (calc.)” value ([1]; serum, mean ± SD of two mice) was 310.00 ± 1.41. For the same compound, the Phos ([1]; serum, mean ± SD of two mice) was 10.25 ± 0.35 mg/dL, the “T. Bili” value ([1]; serum, mean ± SD of two mice) was 0.10 ± 0.00 mg/dL and the TP ([1]; serum, mean ± SD of two mice) was 4.85 ± 0.21 g/dL. For the same compound, the half-life at 1 µmol/L [2] was 1.84 ± 0.0717 h, the Papp at 5 h, 100 μmol/L ([3]; PAMPA, 25 °C, 5 h, 100 μmol/L, read-out: PAMPA Pe) was 11 ± 1.3 ×10⁻⁶ cm/s and the PAMPA permeability class ([3]; cutoff Pe 1.5 × 10^−6 cm/s) was “high passive permeability”.

Source: PMC12654037, “Norditerpene Natural Products from Subterranean Fungi with Anti-Parasitic Activity” (Microorganisms, 2025)
